Source: PMC9977398, “Next-generation membrane-active glycopeptide antibiotics that also inhibit bacterial cell division” (Chemical Science, 2023)

Tests used:
[1] = tested on: B. subtilis; assay: Cytoplasmic membrane depolarization assay, DiSC3(5); type: cell-based; conditions: exponentially growing B. subtilis, 10 μM
Text: The membrane disruption properties of both VanQbiph (4) and VanQAmC10 (8) were studied to correlate the extent of membrane perturbation and bactericidal activity against both exponentially growing and non-growing bacterial cells. Their ability to depolarize the membrane was monitored using the fluorescent probe DiSC3(5) (3,3′-dipropylthiadicarbocyanine iodide). DiSC3(5) is sensitive to the membrane potential and as it accumulates in the membrane, the fluorescence intensity decreases due to self-quenching. Upon dissipation of membrane potential, an increase in fluorescence is observed due to DiSC3(5) being dispersed in the solution. […]
were added to it the wells containing bacterial suspension. Fluorescence has monitored at excitation wavelength of 535 nm (slit width: 10 nm) and emission wavelength of 617 nm (slit width: 5 nm). As a measure of inner membrane permeabilization the uptake of PI was monitor by the increase in fluorescence for 30-50 min. […]
Mid log phase MRSA were harvested (3500 rpm, 5 min), washed in 5 mM glucose and 5 mM HEPES buffer (pH 7.2) in 1:1 ratio and resuspended in 5 mM HEPES buffer, 5 mM glucose and 100 mM KCl solution in 1:1:1 ratio. […] The fluorescence was monitored at excitation wavelength of 622 nm and emission wavelength of 670 nm. […] As a measure of membrane depolarization fluorescence was monitor for another 35 min. […]

[2] = tested on: VRE; assay: MIC against VRE (strains taken together); type: cell-based; conditions: ratio of MICs
Method: (§1) The increase in the carbon content of substituted moieties from six (1) to seven (2 and 3) to ten (5) to twelve (4), increased activity.
(§2) VanQAmC14 (10): Yield 65%; HPLC purity 96%; 1H-NMR (400 MHz, DMSO-d6) δ/ppm:
(§3) Test compound was assayed in a micro -dilution broth format as per the CLSI guideline. The bacterial freeze dried stock samples were stored at -80 °C. About 5 μL of these stocks were added to 3 mL of the respective broth and the culture was grown for 6 h at 37°C with prior to the experiments. This 6 h grown culture was diluted to give effective cell concentration of 10 5 CFU/mL which was then used for determining MIC. Compounds were serially diluted 2 -fold, in sterile millipore water and 50 μL of these serial dilutions were added to the wells of 96 well plate followed by the addition of about 150 μL of bacterial solution. The plates were then incubated for 18-24 h at 37 °C. The O.D. value at 600 nm was recorded using TECAN (Infinite series, M200 pro) Plate Reade r. Each concentration had triplicate values and the whole experiment was done at least twice and the MIC value was determined by taking the average of triplicate O. D. values for each concentration and plotting it against concentration. The data was then subjected to sigmoidal fitting. From the curve the MIC value was determined, as the point where the O. D. was similar to that of control having no bacteria.

[3] = tested on: VRSA; assay: MIC against VRSA (strain not specified / strains taken together); type: cell-based, S. aureus; conditions: ratio of MICs
Method: as §1, §2, §3

Row | SMILES | time to membrane depolarisation post-treatment [1] [min] | fold enhancement in activity as compared to vancomycin against VRE [2] | fold increase in activity as compared to vancomycin against VRSA [3] [fold]
1 | CCCCCCCCCCNC(=O)C[N+](C)(C)CCCNC(=O)C1NC(=O)C2NC(=O)C(NC(=O)C3NC(=O)C(CC(N)=O)NC(=O)C(NC(=O)C(CC(C)C)NC)C(O)c4ccc(c(Cl)c4)Oc4cc3cc(c4OC3OC(CO)C(O)C(O)C3OC3CC(C)(N)C(O)C(C)O3)Oc3ccc(cc3Cl)C2O)c2ccc(O)c(c2)-c2c(O)cc(O)cc21 (centres unmarked) [VanQAmC10 (8)] | ≤ 2 | ~160 fold | –
2 | CNC(CC(C)C)C(=O)NC1C(=O)NC(CC(N)=O)C(=O)NC2C(=O)NC3C(=O)NC(C(=O)NC(C(=O)NCCC[N+](C)(C)Cc4ccc(-c5ccccc5)cc4)c4cc(O)cc(O)c4-c4cc3ccc4O)C(O)c3ccc(c(Cl)c3)Oc3cc2cc(c3OC2OC(CO)C(O)C(O)C2OC2CC(C)(N)C(O)C(C)O2)Oc2ccc(cc2Cl)C1O (centres unmarked) [VanQbiph (4)] | ≤ 2 | 40- to 60 fold | 22 to 88
